This assay has as its system G. stearothermophilus spores. The conditions noted are these: for Average Log Reduction: nominal 0.35 ppm H2O2, blades exposed serially; for Average Log Reduction / AVERAGE LOG REDUCTION: [H2O2] average, low; for AVERAGE LOG REDUCTION: nominal 0.6 ppm H2O2 vapor from urea complex, 6×10^4 spores per blade.

Read-outs that look alike come from different tables or passages of the source.

The values that follow come from US20090263499A1, “AREA DECON[…] LOW-LEVEL CONCENTRATION OF […]” (Ethicon, Inc., priority 2008, published 2009).

Procedure: Stainless steel scalpel blades were inoculated with 10 μL of inoculum containing 6×10^4 spores. The inoculum was then dried on the blade surface. Nine inoculated blades where placed in a 1 ft^3 sealed chamber constructed of acrylic. In the chamber a urea complex was confined in a glass tube with a flow restriction that allowed the concentration of peroxide in the chamber to be controlled. Three identically-inoculated blades where placed inside a covered petrie dish and placed near the chamber to serve as controls. At three day intervals, three blades were retrieved from the chamber as well as one control. These blades were subjected to a standard recovery, plating and incubation procedure from which the viable spore count and log reduction could be determined.

`OO` [hydrogen peroxide]: the “Average Log Reduction” value is listed as 1.12 (after 3 days exposure, high 0.35, 0.2, 0.5 ppm); 1.83 (after 7 days exposure, high 0.30, 0.2, 0.5 ppm); “≧4.0” (after 9 days exposure, high 0.39, 0.2, 0.6 ppm). Further, the “AVERAGE LOG REDUCTION” value runs as follows: (after 3 days exposure, high 0.56, 0.40, 0.83 ppm) 1.5; (after 6 days exposure, high 0.66, 0.40, 0.83 ppm) 2.7; (after 9 days exposure, high 0.66, 0.40, 0.95 ppm) “≧4.8”. In addition, the “log reduction in G. stearothermophilus spores per day” value (nominal concentration of 0.6 ppm of hydrogen peroxide, from Table 1) was approximately 0.5.
